Data on 16 molecules can be found in ChEMBL document CHEMBL1148604 (J Med Chem, 2006).

≈ marks a conversion by molar mass, not a printed value.

For orientation: MIC means the least concentration at which growth counts as inhibited. The IC50 is the concentration that gives 50% inhibition. A low value points to greater potency.

One assay deals with Escherichia coli. The assay is described as follows: Inhibitory activity against Escherichia coli ANSI. Format: functional.
Assay [1] relates to Mycobacterium tuberculosis. The assay is described as follows: Inhibitory activity against Mycobacterium tuberculosis H37Rv. Format: functional.
Assay [2] addresses T1, 3-oxoacyl-[acyl-carrier-protein] synthase 1 (Escherichia coli K-12, UniProt P0A953).
T1 sequence (P0A953 whole entry): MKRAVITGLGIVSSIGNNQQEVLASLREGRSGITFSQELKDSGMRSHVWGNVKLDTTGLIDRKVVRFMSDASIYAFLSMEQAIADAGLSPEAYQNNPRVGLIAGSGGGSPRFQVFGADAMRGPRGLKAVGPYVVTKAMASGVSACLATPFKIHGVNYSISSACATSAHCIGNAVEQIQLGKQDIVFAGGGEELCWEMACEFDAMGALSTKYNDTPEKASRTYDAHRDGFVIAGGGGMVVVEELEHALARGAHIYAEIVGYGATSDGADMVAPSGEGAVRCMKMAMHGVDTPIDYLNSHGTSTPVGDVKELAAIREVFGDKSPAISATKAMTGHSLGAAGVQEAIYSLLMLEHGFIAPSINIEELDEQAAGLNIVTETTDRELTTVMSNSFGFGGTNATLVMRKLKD
The assay can be described thus: Inhibitory activity against FabB from Escherichia coli ANSI.

Assay [3] has as its target T2, 3-oxoacyl-[acyl-carrier-protein] synthase 3 (Escherichia coli, UniProt C3TDZ2).
T2 sequence (C3TDZ2 whole entry): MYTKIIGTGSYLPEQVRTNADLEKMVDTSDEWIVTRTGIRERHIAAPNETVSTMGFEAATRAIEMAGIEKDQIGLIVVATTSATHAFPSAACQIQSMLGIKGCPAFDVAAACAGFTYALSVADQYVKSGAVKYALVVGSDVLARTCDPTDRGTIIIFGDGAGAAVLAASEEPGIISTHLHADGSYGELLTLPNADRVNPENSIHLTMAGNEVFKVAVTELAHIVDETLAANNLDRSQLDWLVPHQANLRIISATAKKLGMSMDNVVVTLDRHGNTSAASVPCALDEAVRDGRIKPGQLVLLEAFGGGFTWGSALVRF
The assay can be described thus: Inhibitory activity against FabH from Escherichia coli ANSI.

The target of assay [4] is T3, Mycobacterial beta-ketoacyl-[acyl-carrier-protein] synthase III (Mycobacterium tuberculosis, UniProt P9WNG3).
T3 sequence (P9WNG3 whole entry): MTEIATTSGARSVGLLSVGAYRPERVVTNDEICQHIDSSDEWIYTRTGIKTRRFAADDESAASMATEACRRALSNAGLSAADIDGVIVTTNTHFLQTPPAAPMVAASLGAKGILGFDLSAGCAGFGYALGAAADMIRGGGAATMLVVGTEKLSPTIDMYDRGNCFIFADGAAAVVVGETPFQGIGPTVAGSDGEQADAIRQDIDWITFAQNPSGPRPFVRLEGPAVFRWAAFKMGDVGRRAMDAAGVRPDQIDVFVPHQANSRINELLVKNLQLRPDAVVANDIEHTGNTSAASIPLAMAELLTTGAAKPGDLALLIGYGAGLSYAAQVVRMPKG
The assay can be described thus: Inhibitory activity against FabH from Mycobacterium tuberculosis H37Rv.

Assay [5] has as its target T4, 3-oxoacyl-[acyl-carrier-protein] synthase 2 (Mycobacterium tuberculosis, UniProt P9WQD7).
T4 sequence (P9WQD7 whole entry): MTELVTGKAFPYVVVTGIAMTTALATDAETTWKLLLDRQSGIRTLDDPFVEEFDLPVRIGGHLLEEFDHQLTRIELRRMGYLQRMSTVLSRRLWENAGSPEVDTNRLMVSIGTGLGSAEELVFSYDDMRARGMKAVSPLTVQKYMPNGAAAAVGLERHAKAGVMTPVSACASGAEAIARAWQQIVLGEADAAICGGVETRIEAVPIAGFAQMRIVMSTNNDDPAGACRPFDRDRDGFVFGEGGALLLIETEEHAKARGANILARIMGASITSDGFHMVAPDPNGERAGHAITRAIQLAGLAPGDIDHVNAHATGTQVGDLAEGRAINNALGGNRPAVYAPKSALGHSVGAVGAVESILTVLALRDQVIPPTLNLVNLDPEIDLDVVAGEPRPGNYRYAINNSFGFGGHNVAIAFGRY
The assay can be described thus: Inhibitory activity against KasB from Mycobacterium tuberculosis H37Rv.

In another assay the target is wild-type apo-KasA (Mycobacterium tuberculosis, UniProt P9WQD9). The assay can be described thus: Inhibitory activity against KasA from Mycobacterium tuberculosis H37Rv.
Sequence of wild-type apo-KasA (P9WQD9 whole entry, looked up): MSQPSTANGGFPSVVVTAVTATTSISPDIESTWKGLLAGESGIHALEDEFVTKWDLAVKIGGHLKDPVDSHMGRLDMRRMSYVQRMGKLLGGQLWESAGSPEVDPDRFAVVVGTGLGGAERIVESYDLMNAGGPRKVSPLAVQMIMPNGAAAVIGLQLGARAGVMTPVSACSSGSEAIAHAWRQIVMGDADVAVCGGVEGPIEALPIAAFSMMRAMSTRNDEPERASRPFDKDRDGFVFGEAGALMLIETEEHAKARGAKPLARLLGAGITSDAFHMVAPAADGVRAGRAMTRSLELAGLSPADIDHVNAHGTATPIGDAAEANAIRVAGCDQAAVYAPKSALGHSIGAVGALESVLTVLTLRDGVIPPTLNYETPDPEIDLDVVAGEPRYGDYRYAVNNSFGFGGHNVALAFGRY

Regarding `CC1=C(O)C(C)(Cc2ccccc2C)SC1=O` (stereo not given), the MIC against Escherichia coli was greater than 1000 µM; in assay [1], 1000 µM (≈ 248 µg/mL). The IC50 (in assay [2]; in assay [3]; in assay [4]; in assay [5]; against wild-type apo-KasA) was greater than 1 mM each time.
For `C=CCCC1(C)SC(=O)C(C)=C1O` (stereo not given), the MIC (in the assay on Escherichia coli; in assay [1]) was greater than 1000 µM throughout. Also, the 50% inhibitory concentration (IC50) (in assay [2]; in assay [3]; in assay [4]; in assay [5]; on wild-type apo-KasA) was greater than 1 mM each time.
Turning to `COc1ccccc1CC1(C)SC(O)=C(C)C1=O` (stereo not given), the MIC (against Escherichia coli; in assay [1]) was greater than 1000 µM throughout. For the same molecule, the IC50 was greater than 1 mM in assay [2]; greater than 1 mM in assay [3]; greater than 0.1 mM in assay [4]; greater than 1 mM in assay [5]; greater than 1 mM at wild-type apo-KasA.
Take `CCCCCCCCCCCCCCCC1(C)SC(O)=C(C)C1=O` (stereo not given): the lowest concentration to inhibit growth in assay [1] (MIC) was 500 µM (≈ 177 µg/mL).
As to `CC1=C(O)C(C)(CCc2ccccc2)SC1=O` (stereo not given), the MIC was greater than 1000 µM in the assay with Escherichia coli and 1000 µM (≈ 248 µg/mL) in assay [1]. The IC50 (in assay [2]; in assay [3]; in assay [4]; in assay [5]; at wild-type apo-KasA) was greater than 1 mM each time.
`CC1=C(O)SC(C)(CCC(C)C)C1=O` (stereo not given): the MIC (in the assay with Escherichia coli; in assay [1]) was greater than 1000 µM throughout. In addition, the IC50 (in assay [2]; in assay [3]; in assay [4]; in assay [5]; at wild-type apo-KasA) was greater than 1 mM each time.
Regarding `CC1=C(O)C(C)(Cc2ccccc2Cl)SC1=O` (stereo not given), the MIC in the assay on Escherichia coli was greater than 1000 µM; in assay [1], 1000 µM (≈ 269 µg/mL). Also, the IC50 (in assay [2]; in assay [3]; in assay [4]; in assay [5]; against wild-type apo-KasA) was greater than 1 mM throughout.
Turning to `C=C/C(C)=C/[C@@]1(C)SC(=O)C(C)=C1O` [THIOLACTOMYCIN], the results for the MIC (against Escherichia coli; in assay [1]) were 6 µM (≈ 1.26 µg/mL) and 62.5 µM (≈ 13.1 µg/mL), respectively. Also, the IC50 in assay [2] is 0.012 mM; in assay [5], 0.006 mM.
For the molecule `CC1=C(O)C(C)(CC2CCC2)SC1=O` (stereo not given), the MIC with Escherichia coli is greater than 1000 µM; in assay [1], 1000 µM (≈ 212 µg/mL). Also, the IC50 (in assay [2]; in assay [3]; in assay [4]; in assay [5]; at wild-type apo-KasA) was greater than 1 mM each time.
`CCCCCCCCCCCCCCCCCCCCC1(C)SC(O)=C(C)C1=O` (stereo not given) showed an MIC in assay [1] greater than 1000 µM.
Regarding `CCCCCCCCCCCC1(C)SC(O)=C(C)C1=O` (stereo not given), the MIC in the assay on Escherichia coli was determined as 25 µM (≈ 7.46 µg/mL); in assay [1], 500 µM (≈ 149 µg/mL). Besides, the 50% inhibitory concentration (IC50) was greater than 1 mM in assay [2]; greater than 0.1 mM in assay [3]; 0.1 mM in assay [4]; greater than 1 mM in assay [5]; greater than 1 mM at wild-type apo-KasA.
For the molecule `CC1=C(O)C(C)(Cc2ccc(C)cc2)SC1=O` (stereo not given), the minimum inhibitory concentration (MIC) (in the assay on Escherichia coli; in assay [1]) was greater than 1000 µM each time. Further, the IC50 (in assay [2]; in assay [3]; in assay [4]; in assay [5]; against wild-type apo-KasA) was greater than 1 mM throughout.
Turning to `CCCCCCCCCCC(C)C1(C)SC(O)=C(C)C1=O` (stereo not given), the MIC in the assay on Escherichia coli came to 35 µM (≈ 10.9 µg/mL); in assay [1], 500 µM (≈ 156 µg/mL). In addition, the IC50 in assay [2] was greater than 1 mM; in assay [3] it was 0.1 mM; in assay [4], 0.065 mM; in assay [5], greater than 1 mM; at wild-type apo-KasA it was greater than 1 mM.
With `CC1=C(O)SC(C)(C(C)c2ccccc2)C1=O` (stereo not given), the MIC (in the assay with Escherichia coli; in assay [1]) was greater than 1000 µM throughout. Besides, the IC50 (in assay [2]; in assay [3]; in assay [4]; in assay [5]; on wild-type apo-KasA) was greater than 1 mM each time.
Turning to `CCCCCCCCCCCCCCCCC1(C)SC(O)=C(C)C1=O` (stereo not given), in assay [1], the MIC is greater than 1000 µM.
As to `CCCCCCCCCCCCCCCCCCC1(C)SC(O)=C(C)C1=O` (stereo not given), in assay [1], the MIC was greater than 1000 µM.
